Laboratory results reported in ChEMBL document CHEMBL3044796, “Design, synthesis, and biologic evaluation of some novel N-arylpyrazole derivatives as cytotoxic agents” (Med Chem Res, 2013).

Legend:
BGC-823 = test: Cytotoxicity against human BGC823 after 48 hrs by MTT assay; format: functional, cell-based; settings: BGC-823, 48 h
HL-60 = test: Cytotoxicity against human HL60 after 48 hrs by MTT assay; format: functional, cell-based; settings: HL-60, 48 h
Bel-7402 [1] = test: Cytotoxicity against human Bel7402 after 48 hrs by MTT assay; format: functional, cell-based; settings: Bel-7402, 48 h
KB = test: Cytotoxicity against human KB after 48 hrs by MTT assay; format: functional, cell-based
Bel-7402 [2] = test: Ratio of cisplatin IC50 to compound IC50 for human Bel7402 cells; format: functional

SMILES: O=[N+]([O-])c1ccc(-n2cc(-c3ccc(C(F)(F)F)cc3)cn2)cc1
- IC50 (BGC-823): 13.8 µM
- IC50 (HL-60): 17.3 µM
- IC50 (Bel-7402 [1]): 7.15 µM
- IC50 (KB): 21.3 µM

SMILES: Cc1nn(-c2ccc([N+](=O)[O-])cc2)c(C)c1-c1cccc(-c2c(C)nn(-c3ccc([N+](=O)[O-])cc3)c2C)c1
- IC50 (BGC-823): 11.9 µM
- IC50 (HL-60): 10.6 µM
- IC50 (Bel-7402 [1]): 11.8 µM
- IC50 (KB): 10.1 µM

SMILES: Cc1nn(-c2ccc([N+](=O)[O-])cc2)c(C)c1-c1ccccc1-c1c(C)nn(-c2ccc([N+](=O)[O-])cc2)c1C
- IC50 (BGC-823): 25.4 µM
- IC50 (HL-60): 16.2 µM
- IC50 (Bel-7402 [1]): 19.9 µM
- IC50 (KB): 25.6 µM

SMILES: O=[N+]([O-])c1ccc(-c2cnn(-c3ccc([N+](=O)[O-])cc3)c2)cc1
- IC50 (BGC-823): 11.9 µM
- IC50 (HL-60): 8.78 µM
- IC50 (Bel-7402 [1]): 9.48 µM
- IC50 (KB): 8.4 µM

SMILES: O=[N+]([O-])c1ccc(-n2cc(-c3ccncc3)cn2)cc1
- IC50 (BGC-823): 20.8 µM
- IC50 (HL-60): 17.8 µM
- IC50 (Bel-7402 [1]): 23.2 µM
- IC50 (KB): 19.2 µM

SMILES: O=[N+]([O-])c1ccc(-n2cc(-c3cc(C(F)(F)F)cc(C(F)(F)F)c3)cn2)cc1
- IC50 (BGC-823): 18.5 µM
- IC50 (HL-60): 11.4 µM
- IC50 (Bel-7402 [1]): 7.39 µM
- IC50 (KB): 12 µM

SMILES: CCCCCCCCOc1cc(-c2c(C)nn(-c3ccc([N+](=O)[O-])cc3)c2C)cc(-c2c(C)nn(-c3ccc([N+](=O)[O-])cc3)c2C)c1
- Ratio IC50 (Bel-7402 [2]): 1.5
- IC50 (BGC-823): 8.4 µM
- IC50 (HL-60): 7.91 µM
- IC50 (Bel-7402 [1]): 5.22 µM
- IC50 (KB): 6.31 µM
